From ChEMBL document CHEMBL1148439, “A phenylnorstatine inhibitor binding to HIV-1 protease: geometry, protonation, and subsite-pocket interactions analyzed at atomic resolution” (J Med Chem, 2004) come the findings set out here.

The target of the assay is Human immunodeficiency virus type 1 protease (Human immunodeficiency virus 1, UniProt Q72874, V82A). Put plainly: Tested for inhibitor binding of Val82Ala mutant of HIV PR. Also on record: species or system human immunodeficiency virus type1.

Take `NC(=O)[C@H](CCC(=O)O)NC(=O)[C@H](CCC(=O)O)NC(=O)[C@H](Cc1ccccc1)NC(=O)[C@H](O)[C@H](Cc1ccccc1)NC(=O)OCc1ccccc1`: the Ki (in general, the equilibrium dissociation constant of an inhibitor or competing ligand from its target) turned out to be 0.11 nM.
